Data from patent publication US20220257698A1, “ANGIOTENSIN TYPE 2 (AT2) RECEPTOR AGONISTS FOR USE IN THE TREATMENT OF CANCER” (LANTHIOPEP B.V., priority 2019, published 2022).

Tests used:
[1] = system: lung carcinoma PDX Lu7433; test: KcAng(1-7) on growth of lung carcinoma PDX Lu7433 in mice; type: in vivo, NMRI nu/nu mice (human PDX)
Experimental: In vivo studies were conducted at EPO GmbH Berlin. Large studies (FIG. 1A, 2, 3, 4, 5) comprised 3 groups of 10 mice/group and 5 animals as reserve, as outlined in Table 1. Smaller studies (FIG. 1B, 1C, 1D) comprised 2 groups of mice of 3 mice per group. The animals were allocated to the various treatment groups (e.g. 0.2 μg/kg and 30 μg/kg) with a maximum of 10 animals per group. […] The groups received subcutaneous (s.c.) drug injection (for max. 28 days) as outlined in the Table 1.
NMRI nu/nu mice were used in this study. The animals were female at age of 6 to 8 weeks. The respective PDX tumors were inoculated subcutaneously (s.c.), and the tumors were grown to achieve palpable tumor sizes before start of the respective treatments. The PDX included breast (MaCa4151), colon (Co9689A), head & neck (HN10309), lung (Lu7433) and ovarian (OvCa13329) cancer (Table 2).
Treatment with KcAng(1-7) was started with palpable tumors after the randomization of animals regarding tumor volume. KcAng(1-7) was applied s.c. by daily injections at […] or 30 μg/kg dose for a maximum of 28 days (or earlier as defined by the humane end point for the study).
KcAng(1-7) was prepared as follows: The compounds was suspended in sterile PBS resulting in a clear solution. The remains of this formulation were stored at 4° C.
Tumor growth stimulatory or inhibitory activity of the KcAng(1-7) was evaluated by determination of tumor volumes (TV). During the study, tumor volumes and body weight were measured twice a week, and the ratio of the mean tumor volumes between the compound-treated group and the vehicle-treated group (T/C) was calculated.
Tumor volume=(tumor width)×(tumor width)×(tumor length)+2
T/C=T÷C • T: Mean estimated tumor volume of the compound-treated group • C: Mean estimated tumor volume of the vehicle-treated group

[2] = target: tyrosine kinases (PTK) in colon carcinoma PDX lysates; test: PamChip tyrosine kinase (PTK) activity profiling of colon carcinoma PDX tumor lysates; design: species or system human PDX grown in mice; Kinase score: scale not given here; details: for Kinase statistic: value<0 = higher activity in vehicle-treated tumors; for Kinase score: vehicle-treated vs KcAng(1-7)-treated tumors
Experimental: In particular, to determine the effect of treatment on kinase activities, Tyrosine (PTK) and Serine/Threonine (STK) PamChip®-based kinase activity profiling in lysates from colon carcinoma PDX was performed by PamGene International B.V., The Netherlands.
PamGene® kinase activity profiles were measured for vehicle-treated colon cancer PDX tumors (control, n=10) and KcAng(1-7)-treated colon cancer PDX tumors (treatment, n=10).
Frozen tissues of tumor samples were processed to make lysates followed by determination of tyrosine kinase and serine/threonine kinase activity profiles. Datasets were analyzed by PamGene bioinformatics toolbox, for example by using PamGene's method called Upstream Kinase Analysis.
Kinase Score was used for ranking kinases based on their significance and specificity in terms of the set of peptides used for the corresponding kinase. Kinase statistics indicates the overall change of the peptide set that represents the kinase. Kinase statistics value<0 indicates higher activity in vehicle-treated tumors.

[3] = Gr. B 0.2 μg/kg/d s.c., Day 11 (Meas. 1)
[4] = Gr. B 0.2 μg/kg/d s.c., Day 14 (Meas. 2)
[5] = Gr. B 0.2 μg/kg/d s.c., Day 18 (Meas. 3)
[6] = Gr. B 0.2 μg/kg/d s.c., Day 21 (Meas. 4)
[7] = Gr. B 0.2 μg/kg/d s.c., Day 25 (Meas. 5)
[8] = Gr. B 0.2 μg/kg/d s.c., Day 28 (Meas. 6)
[9] = Gr. C 30 μg/kg/d s.c., Day 11 (Meas. 1)
[10] = Gr. C 30 μg/kg/d s.c., Day 14 (Meas. 2)
[11] = Gr. C 30 μg/kg/d s.c., Day 18 (Meas. 3)
[12] = Gr. C 30 μg/kg/d s.c., Day 21 (Meas. 4)
[13] = Gr. C 30 μg/kg/d s.c., Day 25 (Meas. 5)
[14] = Gr. C 30 μg/kg/d s.c., Day 28 (Meas. 6)

Lys-Asp-Arg-Val-Abu/Ala-Ile-His-Abu/Ala (KDRVAIHA; not fully specified; cyclic thioether (Abu/Ala bridge); VARIANT (5)..(5) /replace=“Abu”; VARIANT (8)..(8) /replace=“Abu”; SITE (1)..(8) /note=“Variant residues given in the sequence have no preference with respect to those in the annotations for variant positions”) [KcAng(1-7)]
optT/C ([1]; 0.2 μg/kg): 68.2% | optT/C ([1]; 30 μg/kg): 71.9% | effect on tumor growth ([1]; 0.2 and 30 μg/kg, 19 days): moderate but significant decrease in tumor growth | RTV Mean [1, 3]: 1 | RTV Median [1, 3]: 1 | T/C [1, 3]: 100.1% | Tumor Vol. Mean [1, 3]: 0.112 cm^3 | Tumor Vol. Median [1, 3]: 0.109 cm^3 | RTV Mean [1, 4]: 1.7 | RTV Median [1, 4]: 1.8 | T/C [1, 4]: 88.4% | Tumor Vol. Mean [1, 4]: 0.187 cm^3 | Tumor Vol. Median [1, 4]: 0.19 cm^3 | RTV Mean [1, 5]: 3.3 | RTV Median [1, 5]: 3.4 | T/C [1, 5]: 75.1% | Tumor Vol. Mean [1, 5]: 0.373 cm^3 | Tumor Vol. Median [1, 5]: 0.412 cm^3 | RTV Mean [1, 6]: 4.2 | RTV Median [1, 6]: 4.3 | T/C [1, 6]: 75.3% | Tumor Vol. Mean [1, 6]: 0.473 cm^3 | Tumor Vol. Median [1, 6]: 0.454 cm^3 | RTV Mean [1, 7]: 5.7 | RTV Median [1, 7]: 5.6 | T/C [1, 7]: 71% | Tumor Vol. Mean [1, 7]: 0.643 cm^3 | Tumor Vol. Median [1, 7]: 0.625 cm^3 | RTV Mean [1, 8]: 7.6 | RTV Median [1, 8]: 8.1 | T/C [1, 8]: 68.2% | Tumor Vol. Mean [1, 8]: 0.844 cm^3 | Tumor Vol. Median [1, 8]: 0.808 cm^3 | RTV Mean [1, 9]: 1 | RTV Median [1, 9]: 1 | T/C [1, 9]: 99.7% | Tumor Vol. Mean [1, 9]: 0.112 cm^3 | Tumor Vol. Median [1, 9]: 0.099 cm^3 | RTV Mean [1, 10]: 1.6 | RTV Median [1, 10]: 1.6 | T/C [1, 10]: 85.1% | Tumor Vol. Mean [1, 10]: 0.18 cm^3 | Tumor Vol. Median [1, 10]: 0.168 cm^3 | RTV Mean [1, 11]: 3.2 | RTV Median [1, 11]: 3.1 | T/C [1, 11]: 71.9% | Tumor Vol. Mean [1, 11]: 0.357 cm^3 | Tumor Vol. Median [1, 11]: 0.376 cm^3 | RTV Mean [1, 12]: 4.3 | RTV Median [1, 12]: 4.1 | T/C [1, 12]: 75.1% | Tumor Vol. Mean [1, 12]: 0.472 cm^3 | Tumor Vol. Median [1, 12]: 0.509 cm^3 | RTV Mean [1, 13]: 6.1 | RTV Median [1, 13]: 5.9 | T/C [1, 13]: 75.3% | Tumor Vol. Mean [1, 13]: 0.682 cm^3 | Tumor Vol. Median [1, 13]: 0.719 cm^3 | RTV Mean [1, 14]: 8.2 | RTV Median [1, 14]: 8.2 | T/C [1, 14]: 73.7% | Tumor Vol. Mean [1, 14]: 0.912 cm^3 | Tumor Vol. Median [1, 14]: 0.991 cm^3 | Kinase statistic ([2]; kinase CCK4/PTK7): −0.58 | Kinase score ([2]; kinase CCK4/PTK7): 2.23 | Kinase statistic ([2]; kinase EPHA1): −0.52 | Kinase score ([2]; kinase EPHA1): 2.01 | Kinase statistic ([2]; kinase EPHA2): −0.50 | Kinase score ([2]; kinase EPHA2): 1.96 | Kinase statistic ([2]; kinase EPHA3): −0.55 | Kinase score ([2]; kinase EPHA3): 2.38 | Kinase statistic ([2]; kinase EPHA4): −0.52 | Kinase score ([2]; kinase EPHA4): 2.55 | Kinase statistic ([2]; kinase EPHA8): −0.51 | Kinase score ([2]; kinase EPHA8): 1.71 | Kinase statistic ([2]; kinase FER): −0.51 | Kinase score ([2]; kinase FER): 2.49 | Kinase statistic ([2]; kinase FES): −0.47 | Kinase score ([2]; kinase FES): 1.84 | Kinase statistic ([2]; kinase FGFR1): −0.49 | Kinase score ([2]; kinase FGFR1): 2.39 | Kinase statistic ([2]; kinase FGFR2): −0.47 | Kinase score ([2]; kinase FGFR2): 1.82 | Kinase statistic ([2]; kinase FGFR3): −0.48 | Kinase score ([2]; kinase FGFR3): 1.89 | Kinase statistic ([2]; kinase HER2): −0.47 | Kinase score ([2]; kinase HER2): 2.68 | Kinase statistic ([2]; kinase HER4): −0.47 | Kinase score ([2]; kinase HER4): 2.11 | Kinase statistic ([2]; kinase JAK1~B): −0.49 | Kinase score ([2]; kinase JAK1~B): 1.70 | Kinase statistic ([2]; kinase LMR1): −0.71 | Kinase score ([2]; kinase LMR1): 4.10 | Kinase statistic ([2]; kinase MER): −0.44 | Kinase score ([2]; kinase MER): 1.74 | Kinase statistic ([2]; kinase MET): −0.46 | Kinase score ([2]; kinase MET): 2.16 | Kinase statistic ([2]; kinase TEC): −0.44 | Kinase score ([2]; kinase TEC): 1.79 | Kinase statistic ([2]; kinase TXK): −0.46 | Kinase score ([2]; kinase TXK): 2.05 | Kinase statistic ([2]; kinase TYRO3/SKY): −0.45 | Kinase score ([2]; kinase TYRO3/SKY): 2.03
